Several values for one entry are separate records, joined by “and”; a condition that tells them apart may be missing. Identical values can stand only once.
Assays:
[1] = tested on: E6/E7^LOW human hepatocytes; assay: Apoptotic index, DeadEnd fluorometric TUNEL System; assay type: cell-based; details: 24 hours exposure
HepG2/C3A organoids = assay: Real-time oxygen uptake toxicity (TC50, time to onset, lowest exposure level) in differentiated HepG2/C3A organoids; assay type: cell-based, human; details: for TC50: oxygen uptake
Experimental: A suspension of HepG2/C3A cells and CPOx-50-RuP beads (Colibri Photonics, Germany) were suspended in 2.5 mg/ml rat tail collagen type I (Corning, USA) at a cell density of 7×10^5 cells/μl. A volume of 1.1 μl of the gel-imbedded mixture was injected into each microwell and left to form spontaneously until their metabolic activity stabilized around day 4.
Fifty-micrometer-diameter polystyrene microbeads were loaded with ruthenium-phenanthroline-based phosphorescence dye (CPOx-50-RuP). […] Oxygen acts as a quencher, leading to a decrease in decay time and signal intensity with increasing concentration. The present inventors chose to measure decay time, rather than signal intensity, as it is not sensitive to changes in probe concentration or excitation intensity over the course of the experiment. The signal was measured using the OPAL system (Colibri Photonics, Germany) that comprises of a control module, 532 nm LED excitation source, and a photomultiplier (PMT) detector mounted on the ocular of an IX81 Olympus microscope (Olympus, Japan). A filter cube with 531/40 (Ex), 555, 607/70 (Em) was inserted in the optical light path during measurements. To accurately measure decay time, the present inventors chose phase modulation in which sinusoidal amplitude-modulated light is shifted in phase due to oxygen quenching. To overcome the superposition of in-phase background fluorescence that alters the phase of the detected signal, the present inventors used a novel 53.5 and 31.3 kHz two-frequency phase modulation that allowed to screen out the interference [Schmalzlin E., et al., 2005. Biophysical journal, 89: 1339-1345; Papkovsky, D. B. et al., 2004. Methods in enzymology, 381, 715-735; Ast, C., et al., 2012. Sensors (Basel), 12: 7015-7032; Engelhard, S., et al., 2006. Analytical and bioanalytical chemistry, 384: 1107-1112; Prill, D. et al., 2016, Archives of toxicology, 90: 1181-1191]. Measurements were carried out by averaging five consecutive 4-s exposures. Measurements were taken every 15 minutes. Under similar conditions, 28 days of measurement of organoids was done with no apparent phototoxicity, signal drift, or relevant loss of signal intensity (Schmalzlin E., et al., 2005. Biophysical journal, 89: 1339-1345). Assessment of Cellular Toxicity and Time to Onset
Organoids were exposed to different concentrations of compounds dissolved in culture medium. Cell viability was determined by oxygen uptake following 24 hours of exposure unless otherwise noted. TC50 concentrations were determined using MATLAB by sigmoidal curve fitting (Wenner, M. M. et al., 2011, J Appl Physiol (1985), 111: 1703-1709; Prentice, R. L. et al., 1976, Biometrics, 32: 761-768). Time to onset was analyzed by MATLAB based on LPF and trend assessment.
To find the asymptotic concentration for which damage occurs only at infinite exposure time, the present inventors used a previously developed model for accumulative drug exposure (El-Kareh et al., 2000. Neoplasia, 2: 325-338; Currie, G. M. 2018. J Nucl Med Technol, DOI: 10.2967/jnmt.117.199588). The model is based on the steady-state dynamics of flux accumulation, using a linear first-order approximation of the cell membrane. The flux behavior is described by
where J(C) is the concentration dependent flux, Jmin is the minimal flux that will cause an effect, t is time of exposure and |τ is a drug-cell specific constant accounting reaction dynamics (Gowrishankar et al., 2003. Proceedings of the National Academy of Sciences of the United States of America, 100: 3203-3208; Kotnik T. et al., 2000. IEEE Trans Biomed Eng, 47: 1074-1081). In the present case, t is the Time to Onset (TTO) of damage creating a bi-asymptotic behavior. This adapted model is used to describe lowest exposure level (LEL) under first order, steady state assumptions, as
Real-time oxygen measurements were performed optically using on-chip lifetime-based luminescence quenching (LBLQ). […]

`Cc1cn([C@H]2C=C[C@@H](CO)O2)c(=O)[nH]c1=O` [Stavudine] was tested, and the apoptosis [1] was “no evidence of apoptosis”, the TC50 (HepG2/C3A organoids; at 24 hours) was 4300 µM and the TC50 (HepG2/C3A organoids; at 42 hours) was 1700 µM and 1700 ± 400 µM. For the same molecule, the “Time to onset (TTO) of response” value (HepG2/C3A organoids; dose-dependent range over concentrations tested) was 10 to 29 h and the “lowest exposure level (LEL)” value (HepG2/C3A organoids; horizontal asymptote, onset of damage at infinite time, ± standard error of curve fit) was 4 ± 1 µM.

Source: patent US12631620B2, “Methods of generating organoids for high throughput screening of drugs” (Yissum Research Development Company of the Hebrew …, priority 2019, dated 2026)
